The values below come from patent US10709692B2, “Isoxazolidine derived inhibitors of receptor interacting protein kinase 1 (RIPK1)” (Denali Therapeutics Inc., priority 2015, dated 2020).

A word on the IC50: it is the midpoint of a concentration-inhibition curve.

SMILES strings stand for the structures. Values joined by “and” are separate entries in the source; they are usually repeats but may differ in a detail not shown here. Equal values may be shown once.

The test concerns the target T1, receptor interacting protein kinase 1 (GST-hRIPK1 (8-327)) (Homo sapiens, UniProt Q13546).
T1 construct: GST-hRIPK1 (8-327) enzyme was generated by Proteros GmbH by Baculovirus expression system
T1 sequence (Q13546 8-327): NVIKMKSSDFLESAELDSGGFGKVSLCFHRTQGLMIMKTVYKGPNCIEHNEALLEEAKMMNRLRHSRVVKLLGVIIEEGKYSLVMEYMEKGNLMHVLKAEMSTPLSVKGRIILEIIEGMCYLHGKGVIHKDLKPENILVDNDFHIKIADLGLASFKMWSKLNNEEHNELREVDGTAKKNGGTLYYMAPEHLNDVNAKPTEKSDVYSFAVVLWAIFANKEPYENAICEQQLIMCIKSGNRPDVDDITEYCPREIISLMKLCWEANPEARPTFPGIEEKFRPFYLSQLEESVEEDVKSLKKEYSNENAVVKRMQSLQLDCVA
Briefly: Fluorescent Polarization Binding (FP Binding) assay. Particulars: 10 nM GST-hRIPK1 (8-327), 5 nM fluorescent-labeled ligand, 30 min at RT. How it is done:
Fluorescent Polarization Binding (FP Binding) assay (Berger S. B. et al. (2015) Cell Death Discovery, 1: 15009; Maki J. L. et al. (2012) Anal Biochem., 427(2): 164-174) was performed in polystyrene low volume 384-well black plate, at Room Temperature (RT) in a final volume of 10.1 μl/well using 10 nM of GST-hRIPK1 (8-327) enzyme and 5 nM of fluorescent-labeled ligand (14-(2-{[3-({2-{[4-(cyanomethyl)phenyl]amino}-6-[(5-cyclopropyl-1H-pyrazol-3-yl)amino]-4-pyrimidinyl}amino) propyl]amino}-2-oxoethyl)-16,16,18,18-tetramethyl-6,7,7a,8a,9,10,16,18-octahydrobenzo[2″3″]indolizino[8″, 0.7″:5′,6′]pyrano[3′,2′:3,4]pyrido[1,2-a]indol-5-ium-2-sulfonate.
Test compounds were serially diluted in DMSO at 100 fold final concentrations in the assay (1% DMSO final). In each well of a 384-well Plate were dispensed 0.1 μL of compound solution (or DMSO for controls) followed by 5 μL of GST-hRIPK1 (8-327) at twice the final concentrations in assay-buffer (50 mM HEPES pH 7.5, 10 mM NaCl, 50 mM MgCl2, 0.02% CHAPS, 0.5 mM DTT and 0.01% Pluronic F127). For negative control the enzyme addition was replaced by assay buffer only.
After addition of 5 μL of fluorescent-labeled ligand at twice the final concentrations in assay buffer, the plate was incubated at RT for 30 min. At the end, the binding was measured as FP value with the Envision (PerkinElmer) plate reader using filter for an excitation λ=531 nm FP and an emission λ=595 nm FP (S & P-pol).
Test compound inhibition was expressed as percent inhibition of internal assay controls. For concentration response curves, normalized data is fit and IC50 determined using XL-fit (IDBS) for Excel. IC50 were averaged to determine a mean value, for a minimum of two independent experiments.
Receptor interacting protein kinase 1 activity of exemplary compounds was determined according to the above general procedures.
Receptor interacting protein kinase 1 activity of certain compounds was determined according to the above general procedures.
The molecule `CC1(C(=O)N2OCC[C@H]2c2ccc(F)cc2)CCCOC1` (single isomer, unassigned) [Compound 35] yielded an IC50 of less than 1000 nM. The figure for `CC1(C(=O)N2OCC[C@H]2c2ccc(F)cc2)CCCOC1` (single isomer, unassigned) [Compound 36] is less than 1000 nM. The figure for `CC1(C(=O)N2OCC[C@H]2c2ccc(F)cc2)CCOC1` (single isomer, unassigned) [Compound 40] is less than 1000 nM; for `CC1(C(=O)N2OCC[C@H]2c2ccc(F)cc2)CCOC1` (single isomer, unassigned) [Compound 41] it is less than 1000 nM; for `O=C(C1CCO1)N1OCC[C@H]1c1ccccc1` (single isomer, unassigned) [Compound 52] it is more than 10000 nM.

As for `O=C(C1CCO1)N1OCC[C@H]1c1ccccc1` (single isomer, unassigned) [Compound 53], the IC50 lay in the range of 1000 to 10000 nM. Consider `CC(C)(C)C(=O)N1OCC[C@H]1c1ccc(F)nc1` (single isomer, unassigned) [Compound 61], for which the IC50 was < 1000 nM and 28 nM. The figure for `CC(C)(C)C(=O)N1OCC[C@@H]1c1ccc(F)nc1` (single isomer, unassigned) [Compound 62] is 1000 to 10000 nM. The molecule `CC(C)(C)C(=O)N1OCCC1c1ccc(F)cc1` (single isomer, unassigned) [Compound 74, 1-[3-(4-Fluorophenyl)-1,2-oxazolidin-2-yl]-2,2-dimethylpropan-1-one] returned an IC50 of more than 10000 nM. In turn, `CC(C(=O)N1OCCC1c1ccc(C#N)cc1)C(F)F` (single isomer, unassigned) [Compound 91] showed an IC50 of less than 1000 nM. The figure for `CC(C(=O)N1OCCC1c1ccc(C#N)cc1)C(F)F` (single isomer, unassigned) [Compound 92] is less than 1000 nM; for `CC(C(=O)N1OCC[C@H]1c1ccc(F)cc1)C(F)(F)F` (single isomer, unassigned) [Compound 94] it is less than 1000 nM; for `CC(C(=O)N1OCC[C@H]1c1ccc(F)cc1)C(F)(F)F` (single isomer, unassigned) [Compound 95] it is less than 1000 nM. Molecule `[2H]C1([2H])C[C@@H](c2ccc(C#N)cc2)N(C(=O)C(C)(C)C)O1` (single isomer, unassigned) [Compound 98] returned an IC50 of less than 1000 nM.

For the molecule `C[C@H]1C[C@@H](c2ccc(C#N)cc2)N(C(=O)C(C)(C)C)O1` (single isomer, unassigned) [Compound 99], the IC50 was less than 1000 nM. As for `C[C@@H]1C[C@@H](c2ccc(C#N)cc2)N(C(=O)C(C)(C)C)O1` (single isomer, unassigned) [Compound 100], the IC50 is less than 1000 nM.

On to `CC(C)(C)C(=O)N1OCC[C@@H]1c1cc(F)cc(F)c1` (single isomer, unassigned) [Compound 102], for which the IC50 was less than 1000 nM. Take `CC(C)(C)C(=O)N1OCC[C@H]1c1cc(F)cc(F)c1` (single isomer, unassigned) [Compound 103]: the IC50 is less than 1000 nM. `Cc1cncc([C@@H]2CCON2C(=O)C(C)(C)C)n1` (single isomer, unassigned) [Compound 107]: the IC50 is less than 1000 nM.

In the case of `CC(C)(C)C(=O)N1OCC[C@H]1c1cc(F)cc(C#N)c1` (single isomer, unassigned) [Compound 109], the concentration for half-maximal inhibition (IC50) was < 1000 nM and 7 nM.

As for `CC1(C(=O)N2OCC[C@H]2c2ccc(F)nc2)CC1(F)F` (single isomer, unassigned) [Compound 112], the IC50 was less than 1000 nM. The figure for `CC1(C(=O)N2OCC[C@H]2c2ccc(F)nc2)CC1(F)F` (single isomer, unassigned) [Compound 113] is less than 1000 nM.

`CC1(C(=O)N2OCC[C@H]2c2ccc(F)cc2)CC1(F)F` (single isomer, unassigned) [Compound 114]: the IC50 was less than 1000 nM. The figure for `CC1(C(=O)N2OCC[C@H]2c2ccc(F)cc2)CC1(F)F` (single isomer, unassigned) [Compound 115] is less than 1000 nM; for `CC(C(=O)N1OCC[C@H]1c1ccc(F)nc1)C1CC1` (single isomer, unassigned) [Compound 116] it is less than 1000 nM; for `CC(C(=O)N1OCC[C@H]1c1ccc(F)nc1)C1CC1` (single isomer, unassigned) [Compound 117] it is less than 1000 nM. The figure for `Cc1cnc([C@@H]2CCON2C(=O)C(C)C(F)(F)F)cn1` (single isomer, unassigned) [Compound 129] is less than 1000 nM; for `Cc1cnc([C@@H]2CCON2C(=O)C(C)C(F)(F)F)cn1` (single isomer, unassigned) [Compound 130] it is less than 1000 nM. `CC1(C(=O)N2OCC[C@H]2c2ccc(F)cc2)CCCO1` (single isomer, unassigned) [Compound 136] returned an IC50 of 1000 to 10000 nM. The figure for `CC1(C(=O)N2OCC[C@H]2c2ccc(F)cc2)CCCO1` (single isomer, unassigned) [Compound 137] is 1000 to 10000 nM. The figure for `CC1(C(=O)N2OCC[C@H]2c2ccc(F)nc2)CCOC1` (single isomer, unassigned) [Compound 141] is less than 1000 nM.

As for `CC1(C(=O)N2OCC[C@H]2c2ccc(F)nc2)CCOC1` (single isomer, unassigned) [Compound 142], the concentration for half-maximal inhibition (IC50) was less than 1000 nM.

`CC(C(=O)N1OCC[C@H]1c1ccc(F)nc1)C(F)(F)F` (single isomer, unassigned) [Compound 162] displayed an IC50 of less than 1000 nM. The figure for `CC(C(=O)N1OCC[C@H]1c1ccc(F)nc1)C(F)(F)F` (single isomer, unassigned) [Compound 163] is less than 1000 nM; for `CC(C(=O)N1OCC[C@H]1c1ccc(C#N)cc1)C(F)(F)F` (single isomer, unassigned) [Compound 179] it is less than 1000 nM. The figure for `CC(C(=O)N1OCC[C@H]1c1ccc(C#N)cc1)C(F)(F)F` (single isomer, unassigned) [Compound 180] is less than 1000 nM; for `CC(OC(F)(F)F)C(=O)N1OCC[C@H]1c1ccc(F)cc1` (single isomer, unassigned) [Compound 183] it is less than 1000 nM; for `CC(OC(F)(F)F)C(=O)N1OCC[C@H]1c1ccc(F)nc1` (single isomer, unassigned) [Compound 184] it is less than 1000 nM. The molecule `CC(OC(F)(F)F)C(=O)N1OCC[C@H]1c1ccc(F)nc1` (single isomer, unassigned) [Compound 185] registered an IC50 of 1000 to 10000 nM.

In turn, `Cc1noc(C)c1C(C)C(=O)N1OCC[C@H]1c1ccc(F)cc1` (single isomer, unassigned) [Compound 186] came in with an IC50 of 1000 to 10000 nM. On to `CC(C(=O)N1OCC[C@H]1c1ccc(F)cc1)C(F)F` (single isomer, unassigned) [Compound 188], for which the IC50 was less than 1000 nM. The figure for `CC(C(=O)N1OCC[C@H]1c1ccc(F)cc1)C(F)F` (single isomer, unassigned) [Compound 189] is less than 1000 nM. The figure for `CC(CC#N)C(=O)N1OCC[C@H]1c1ccc(C#N)cc1` (single isomer, unassigned) [Compound 209] is less than 1000 nM; for `CC(CC#N)C(=O)N1OCC[C@H]1c1ccc(C#N)cc1` (single isomer, unassigned) [Compound 210] it is 1000 to 10000 nM. On to `CC1(C(=O)N2OCC[C@H]2c2ccc(F)c(F)c2)CCOC1` (single isomer, unassigned) [Compound 211], for which the IC50 is less than 1000 nM.
